What was measured:
[1] = target: T1, HDAC2 (Homo sapiens, UniProt Q92769); assay: HDAC2 Enzymatic Inhibition Assay in SH-SY5Y Cell Lysate with an Exogenous Substrate (HDAC-Glo 2); format: cell-based; settings: SH-SY5Y cells, five hours incubation, Table 3, class symbols
T1 construct: host or cells: SH-SY5Y cells
Procedure: HDAC2 Enzymatic Inhibition Assay in SH-SY5Y Cell Lysate with an Exogenous Substrate
SH-SY5Y cells (Sigma) were cultured in Eagle's Modified Essential Medium supplemented with 10% fetal bovine serum and pen/strep. Twenty-four hours prior to compound dosing 20 uL of cells were plated in white 384 well plates at a density of 1,500 cells/well. Compounds were serially diluted in neat DMSO and then diluted 1:100 v/v into media without FBS and mixed. Media was removed from the plated cells and the diluted compounds in serum free media (1% v/v final DMSO) were added and incubated at 37° C. for five hours. Ten uL of HDAC-Glo 2 reagent with 0.1% Triton X-100 was then added, the plate was mixed and allowed to develop at room temperature for 100 minutes. Plates were then read with a Spectramax LMax luminometer employing a 0.4 s integration time. Dose response curves were constructed with normalized data where CI-994 at 100 uM was defined as 100% inhibition and DMSO alone as 0% inhibition.
(§1) In the table, “A” indicates a IC50 value of less than 0.5 μM; “B” a IC50 value from 0.5 μM to 1.0 μM; “C” a IC50 value of greater than 1.0 μM and less than or equal to 2.0 μM; and “D” indicates an IC50 value of greater than 2.0 μM. NT=Not Tested.

[2] = target: T2, Full length Human HDAC2 (Homo sapiens, UniProt Q92769); assay: HDAC2 enzymatic assay (deacetylation of FAM-labeled peptide substrate, microfluidic electrophoresis); format: biochemical; settings: recombinant enzymatic assay, Table 2, class symbols
T2 construct: Full length Human HDAC2; FLAG (C); host or cells: baculovirus expression system
Procedure: (§2) HDAC2 and HDAC1 Enzymatic Assay (HDAC2 and HDAC1 IC50 Data)
(§3) The following describes an assay protocol for measuring the deacetylation of a peptide substrate by HDAC2 or HDAC1.
(§4) HD AC protein composition and respective substrate peptides are summarized below.
(§5) HD AC reactions are assembled in 384 well plates (Greiner) in a total volume of 20 μL as following:
(§6) HDAC proteins are pre-diluted in the assay buffer comprising: 100 mM HEPES, pH 7.5, 0.1% BSA, 0.01% Triton X-100, 25 mM KCl and dispensed into 384 well plate (10 uL per well).
(§7) Test compounds are serially pre-diluted in DMSO and added to the protein samples by acoustic dispensing (Labcyte Echo). Concentration of DMSO is equalized to 1% in all samples.
(§8) Control samples (0%-inhibition in the absence of inhibitor, DMSO only) and 100%-inhibition (in the absence of enzyme) are assembled in replicates of four and used to calculate the %-inhibition in the presence of compounds.
(§9) At this step compounds can be pre-incubated with enzyme if desired.
(§10) The reactions are initiated by addition of 10 uL of the FAM-labeled substrate peptide pre-diluted in the same assay buffer. Final concentration of substrate peptide is 1 uM (HDAC1-2).
(§11) The reactions are allowed to proceed at room temperature. Following incubation, the reactions are quenched by addition of 50 μL of termination buffer (100 mM HEPES, pH7.5, 0.01% Triton X-100, 0.1% SDS). Terminated plates are analyzed on a microfluidic electrophoresis instrument (Caliper LabChip® 3000, Caliper Life Sciences/Perkin Elmer) which enables electrophoretic separation of de-acetylated product from acetylated substrate. A change in the relative intensity of the peptide substrate and product is the parameter measured. Activity in each test sample is determined as the product to sum ratio (PSR): P/(S+P), where P is the peak height of the product, and S is the peak height of the substrate. Percent inhibition (Pinh) is determined using the following equation: Pinh=(PSR0% inh−PSRcompound)/(PSR0% inh−PSR100% inh)*100, in which: PSRcompound is the product/sum ratio in the presence of compound, PSR0% inh is the product/sum ratio in the absence of compound and the PSR100% inh is the product/sum ratio in the absence of the enzyme. To determine IC50 of compounds (50%-inhibition) the %-inh data (Pinh versus compound concentration) are fit by a 4 parameter sigmoid dose-response model using XLfit software (IDBS).
as §1

[3] = target: T3, Full length Human HDAC1 (Homo sapiens, UniProt Q13547); assay: HDAC1 enzymatic assay (deacetylation of FAM-labeled peptide substrate, microfluidic electrophoresis); format: biochemical; settings: recombinant enzymatic assay, Table 2, class symbols
T3 construct: Full length Human HDAC1; His (C); FLAG (C); host or cells: baculovirus expression system
Procedure: as §2, §3, §4, §5, §6, §7, §8, §9, §10, §11, §1

T3 sequence (Q13547 whole entry): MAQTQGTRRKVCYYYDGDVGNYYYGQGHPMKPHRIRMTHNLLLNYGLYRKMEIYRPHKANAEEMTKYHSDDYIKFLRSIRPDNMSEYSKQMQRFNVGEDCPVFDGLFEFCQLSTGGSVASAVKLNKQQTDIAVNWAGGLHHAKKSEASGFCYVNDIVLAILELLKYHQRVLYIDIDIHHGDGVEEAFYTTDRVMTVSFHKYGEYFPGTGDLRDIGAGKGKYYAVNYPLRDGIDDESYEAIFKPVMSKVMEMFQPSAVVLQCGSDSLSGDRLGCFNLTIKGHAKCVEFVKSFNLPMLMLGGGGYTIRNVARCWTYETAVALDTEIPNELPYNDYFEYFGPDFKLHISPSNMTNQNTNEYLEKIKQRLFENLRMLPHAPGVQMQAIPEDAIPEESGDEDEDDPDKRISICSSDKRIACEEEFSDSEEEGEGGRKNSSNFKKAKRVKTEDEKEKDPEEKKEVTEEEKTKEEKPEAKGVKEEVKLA
T2 sequence (Q92769 whole entry): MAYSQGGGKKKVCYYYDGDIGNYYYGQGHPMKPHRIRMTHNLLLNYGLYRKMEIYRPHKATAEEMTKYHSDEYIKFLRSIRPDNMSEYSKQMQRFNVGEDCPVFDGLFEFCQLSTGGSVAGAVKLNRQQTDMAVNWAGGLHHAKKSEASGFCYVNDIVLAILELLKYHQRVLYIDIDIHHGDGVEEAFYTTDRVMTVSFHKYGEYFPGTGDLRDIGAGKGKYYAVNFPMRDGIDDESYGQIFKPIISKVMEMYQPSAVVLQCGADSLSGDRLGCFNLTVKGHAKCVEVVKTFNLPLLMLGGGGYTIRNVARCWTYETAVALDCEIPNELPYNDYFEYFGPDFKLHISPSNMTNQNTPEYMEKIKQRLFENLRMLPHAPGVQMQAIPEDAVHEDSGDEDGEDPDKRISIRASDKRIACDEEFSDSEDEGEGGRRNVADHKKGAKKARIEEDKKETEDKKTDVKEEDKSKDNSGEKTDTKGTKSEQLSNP
T1 sequence (Q92769 whole entry): as above

Structure (SMILES)	IC50 [1]	IC50 [2]	IC50 [3]
Cc1nccc(CC2CN(C(=O)Nc3nc(-c4ccc(F)cc4F)ccc3N)C2)n1 [Compound 15]	> 2 µM	> 2 µM	> 2 µM
Cc1nccnc1CC1CN(C(=O)Nc2nc(-c3ccc(F)cc3F)ccc2N)C1 [Compound 16]	0.5 to 1 µM	1 to 2 µM	0.5 to 1 µM
Cc1cc(CC2CN(C(=O)Nc3nc(-c4ccc(F)cc4F)ccc3N)C2)ncn1 [Compound 19]	0.5 to 1 µM	1 to 2 µM	1 to 2 µM
Nc1ccc(-c2ccc(F)cc2F)nc1NC(=O)N1CC(Cc2ncc(F)cn2)C1 [Compound 21]	0.5 to 1 µM	0.5 to 1 µM	< 0.5 µM
Nc1ccc(-c2ccc(F)cc2F)nc1NC(=O)N1CC(Cc2ncco2)C1 [Compound 22]	0.5 to 1 µM	0.5 to 1 µM	0.5 to 1 µM
Nc1ccc(-c2ccc(F)cc2F)nc1NC(=O)N1CC(Cc2cccnn2)C1 [Compound 23]	0.5 to 1 µM	0.5 to 1 µM	1 to 2 µM
Cc1ccc(CC2CN(C(=O)Nc3nc(-c4ccc(F)cc4F)ccc3N)C2)nn1 [Compound 24]	< 0.5 µM	1 to 2 µM	0.5 to 1 µM
Nc1ccc(-c2ccccc2F)nc1NC(=O)N1CC(Cc2ncc(F)cn2)C1 [Compound 26]	1 to 2 µM	0.5 to 1 µM	0.5 to 1 µM
Nc1ccc(-c2ccc(F)cc2)nc1NC(=O)N1CC(Cc2ncc(F)cn2)C1 [Compound 27]	0.5 to 1 µM	< 0.5 µM	< 0.5 µM
Nc1ccc(-c2ccc(F)cc2F)nc1NC(=O)N1CC(Cn2cccn2)C1 [Compound 30]	1 to 2 µM	1 to 2 µM	1 to 2 µM
Nc1ccc(-c2ccc(F)cc2F)nc1NC(=O)N1CC(Cn2ccnc2)C1 [Compound 31]	> 2 µM	> 2 µM	> 2 µM
Nc1ccc(-c2ccc(F)cc2F)nc1NC(=O)N1CC(C(F)(F)c2ncccn2)C1 [Compound 33]	1 to 2 µM	0.5 to 1 µM	0.5 to 1 µM
Nc1ccc(-c2ccc(F)cc2F)nc1NC(=O)N1CC(C(F)(F)c2ncc(F)cn2)C1 [Compound 34]	> 2 µM	0.5 to 1 µM	0.5 to 1 µM
Nc1ccc(-c2ccccc2F)nc1NC(=O)N1CC(C(F)(F)c2ncccn2)C1 [Compound 35]	0.5 to 1 µM	0.5 to 1 µM	1 to 2 µM
Nc1ccc(-c2ccc(F)cc2)nc1NC(=O)N1CC(C(F)(F)c2ncccn2)C1 [Compound 36]	1 to 2 µM	< 0.5 µM	< 0.5 µM
Nc1ccc(-c2ccccc2F)nc1NC(=O)N1CC(C(F)(F)c2ncc(F)cn2)C1 [Compound 37]	0.5 to 1 µM	0.5 to 1 µM	0.5 to 1 µM
Nc1ccc(-c2ccc(F)cc2)nc1NC(=O)N1CC(C(F)(F)c2ncc(F)cn2)C1 [Compound 38]	0.5 to 1 µM	< 0.5 µM	< 0.5 µM
Nc1ccc(-c2ccc(F)cc2F)nc1NC(=O)N1CC(C(F)c2ncccn2)C1 (stereo not drawn) [Compound 40]	0.5 to 1 µM	1 to 2 µM	0.5 to 1 µM

Structure (SMILES)	IC50 [1]	IC50 [2]	IC50 [3]
CC(c1ncccn1)C1CN(C(=O)Nc2nc(-c3ccc(F)cc3F)ccc2N)C1 (stereo not drawn) [Compound 42]	< 0.5 µM	1 to 2 µM	0.5 to 1 µM
Nc1ccc(-c2ccc(F)cc2F)nc1NC(=O)N1CC(CCc2ccccn2)C1 [Compound 43]	> 2 µM	> 2 µM	0.5 to 1 µM
Nc1ccc(-c2ccc(F)cc2F)nc1NC(=O)N1CC(CCc2ncccn2)C1 [Compound 44]	> 2 µM	> 2 µM	> 2 µM
Cc1nnc(CC2CN(C(=O)Nc3nc(-c4ccc(F)cc4F)ccc3N)C2)s1 [Compound 45]	0.5 to 1 µM	1 to 2 µM	0.5 to 1 µM
Nc1ccc(-c2ccc(F)cc2F)nc1NC(=O)N1CC(Cc2nnc(C(F)(F)F)s2)C1 [Compound 46]	> 2 µM	1 to 2 µM	1 to 2 µM
Cn1ccnc1CC1CN(C(=O)Nc2nc(-c3ccc(F)cc3F)ccc2N)C1 [Compound 47]	1 to 2 µM	1 to 2 µM	0.5 to 1 µM
CC(c1ncccn1)C1CN(C(=O)Nc2nc(-c3ccc(F)cc3)ccc2N)C1 (stereo not drawn) [Compound 57]	1 to 2 µM	0.5 to 1 µM	< 0.5 µM
Nc1ccc(-c2ccc(F)cc2F)nc1NC(=O)N1CC(Oc2ncccn2)C1 [Compound 59]	> 2 µM	0.5 to 1 µM	< 0.5 µM
Nc1ccc(-c2ccc(F)s2)nc1NC(=O)N1CC(Cc2ncc(F)cn2)C1 [Compound 61]	1 to 2 µM	0.5 to 1 µM	< 0.5 µM
Nc1ccc(-c2ccc(F)cc2)nc1NC(=O)N1CC(Cc2ncccn2)C1 [Compound 64]	0.5 to 1 µM	1 to 2 µM	< 0.5 µM
Cc1cnc(CC2CN(C(=O)Nc3nc(-c4ccc(F)cc4)ccc3N)C2)nc1 [Compound 65]	0.5 to 1 µM	0.5 to 1 µM	< 0.5 µM
Nc1ccc(-c2ccc(F)s2)nc1NC(=O)N1CC(Cc2ncccn2)C1 [Compound 66]	1 to 2 µM	0.5 to 1 µM	< 0.5 µM
Nc1ccc(-c2cccs2)nc1NC(=O)N1CC(Cc2ncccn2)C1 [Compound 68]	0.5 to 1 µM	1 to 2 µM	< 0.5 µM
Nc1ccc(-c2cccs2)nc1NC(=O)N1CC(Cc2ncc(F)cn2)C1 [Compound 69]	1 to 2 µM	1 to 2 µM	< 0.5 µM
Nc1ccc(-c2cccs2)nc1NC(=O)N1CC(C(F)(F)c2ncccn2)C1 [Compound 70]	1 to 2 µM	0.5 to 1 µM	< 0.5 µM
Cn1ccnc1CC1CN(C(=O)Nc2nc(-c3ccc(F)cc3)ccc2N)C1 [Compound 71]	0.5 to 1 µM	> 2 µM	0.5 to 1 µM
Cc1ccnc(CC2CN(C(=O)Nc3nc(-c4ccc(F)cc4)ccc3N)C2)n1 [Compound 72]	1 to 2 µM	0.5 to 1 µM	< 0.5 µM
